Consider one molecule from US12611393B2, “Treatment of pain by targeting NR4A1” (UNIVERSITY OF CINCINNATI, priority 2019, dated 2026).

Assay [1] deals with mice after plantar incision (postoperative pain). In words: Plantar incision model of postoperative pain (von Frey filaments, Hargreaves test). The assay is classed as in vivo, mouse. As to conditions: vs vehicle; for resolution of postoperative pain (mechanical and thermal hypersensitivity): von Frey filaments and Hargreaves test. Here is the method:
(§1) To investigate the underlying mechanisms of postoperative pain, we adopted a mouse model that is characterized by increased pain sensitivity and macrophage infiltration after a surgical incision made in the plantar aspect of the hind paw. Pain sensitivity and macrophage infiltration were evaluated in NA4A1 knockout (KO) mice. Expression and function of NR4A1 were also evaluated in neuronal and skin tissues, as well as in cultured macrophages.
We used a well-characterized animal model of postoperative pain consisting in plantar incision (FIG. 1). Specifically, FIGS. 1A-1C show an animal model of post-operative pain. FIG. 1A illustrates the experimental design depicting the plantar incision and timeline for the behavioral tests. FIG. 1B is a graph showing how, after plantar incision, mice develop mechanical hypersensitivity (assessed by von Frey filaments) and FIG. 1C is a graph showing thermal hypersensitivity (assessed by Hargreaves test). […]
Cutaneous application of an NA4A1 agonist accelerates the resolution of post-operative pain. […] FIG. 4B is a graph showing mechanical hypersensitivity as assessed by von Frey filaments before injection of the drug (prevention). FIG. 4C is a graph showing mechanical hypersensitivity as assessed by von Frey filaments after drug injection (acute analgesia). FIG. 4D is a graph showing thermal hypersensitivity as assessed by Hargreaves test before injection of the drug (prevention). FIG. 4E is a graph showing thermal hypersensitivity as assessed by Hargreaves test after drug injection (acute analgesia). […]
FIG. 5B is a graph showing mechanical hypersensitivity as assessed by von Frey filaments before injection of the drug (prevention), and FIG. 5C is a graph showing mechanical hypersensitivity as assessed by von Frey filaments after drug injection (acute analgesia). FIG. 5D is a graph showing thermal hypersensitivity as assessed by Hargreaves test before injection of the drug (prevention). FIG. 5D is a graph showing thermal hypersensitivity as assessed by Hargreaves test after drug injection (acute analgesia). […]

In assay [2] the test system is NR4A1 knockout male mice after plantar incision. In words: Plantar incision model of postoperative pain in NR4A1 knockout mice (von Frey filaments, Hargreaves test). The settings on record: local intraplantar injection, vs vehicle. The assay is classed as in vivo, mouse. As to the method:
as §1
We used a well-characterized animal model of postoperative pain consisting in plantar incision (FIG. 1). Specifically, FIGS. 1A-1C show an animal model of post-operative pain. FIG. 1A illustrates the experimental design depicting the plantar incision and timeline for the behavioral tests. FIG. 1B is a graph showing how, after plantar incision, mice develop mechanical hypersensitivity (assessed by von Frey filaments) and FIG. 1C is a graph showing thermal hypersensitivity (assessed by Hargreaves test). These hypersensitivities are indicative of postoperative pain and resolve in 7 days. n=6 male mice per group, One-way ANOVA, *p<0.05 (Bonferroni).
FIG. 6A is a graph showing mechanical hypersensitivity as assessed by von Frey filaments, and FIG. 6B is a graph showing thermal hypersensitivity as assessed by Hargreaves test. […]

The next assay deals with Peritoneal macrophages. In words: Expression of pro-inflammatory mediators in cultured peritoneal macrophages activated with LPS. The assay is classed as cell-based, mouse. The settings on record: Cyto B 10 μg/ml, LPS 20 ng/ml. Here is the method:
Peritoneal macrophages were cultured and incubated with vehicle control, cytosporone B (Cyto B, 10 μg/ml) or/and the macrophage activator lipopolysaccharide (LPS, 20 ng/ml). n=4-8 cultures per group, One-way ANOVA, *p<0.05 (Vehicle vs. LPS, Bonferroni), #p<0.05 (LPS VS. LPS+Cyto B, Bonferroni).

Assay [3] relates to mice with paclitaxel-induced mechanical allodynia. In words: Paclitaxel-induced neuropathic pain (CINP) model, mechanical allodynia. Format: in vivo, mouse. The settings on record: male WT mice, vs PBS. From the text:
FIGS. 9A and 9B are graphs showing that NR4A1 deficiency exacerbates chemotherapy-induced neuropathic pain and neuroinflammation in DRG tissue.
FIGS. 10A and 10B are graphs showing that NA4A1 activation by Cytosporone B (Csn-B) prevents and reverses chemotherapy induced neuropathic pain. […]

For the molecule `CCCCCCCC(=O)c1c(O)cc(O)cc1CC(=O)OCC` [Cytosporone B], the “resolution of postoperative pain (mechanical and thermal hypersensitivity)” value in assay [1] (female mice, local intraplantar injection) was “accelerates the resolution of postoperative pain”; in assay [1] (male mice, local intraplantar injection (i.pl.)) it was “accelerates the resolution of postoperative pain”; in assay [2], “fails to resolve postoperative pain”. Besides, in assay [1] (male mice, systemic intraperitoneal injection), the “effect on postoperative pain (mechanical and thermal hypersensitivity)” value is listed as “limited effects on postoperative pain”. The “expression of pro-inflammatory mediators in macrophages” value in the assay on Peritoneal macrophages is reported as “decreases the expression of pro-inflammatory mediators”. Also, in assay [3] (paclitaxel 2 mg/kg every other day x4, Csn-B intrathecal (i.t.) given with paclitaxel), the “prevention of mechanical allodynia (chemotherapy induced neuropathic pain)” value was “significantly prevent”. Also, the “reversal of mechanical allodynia (chemotherapy induced neuropathic pain)” value in assay [3] (treatment 14 d after first paclitaxel delivery, different doses of Csn-B) was “reverse”.
